Laboratory results as given in ChEMBL document CHEMBL3286238, “Synthesis of a novel legumain-cleavable colchicine prodrug with cell-specific toxicity” (Bioorg Med Chem, 2014).

Tests used:
HEK293 = experiment: Cytotoxicity against HEK293 cells after 48 hrs by MTS assay; assay type: cell-based, Homo sapiens; settings: for EC50: Homo sapiens, HEK293, 48 h; for EC25: human, hek293, 48 h
[1] = Cytotoxicity against human M38L cells after 48 hrs by MTS assay; assay type: cell-based; settings: for EC50: Homo sapiens, M38L; for EC25: human, m38l
[2] = Potency index, ratio of EC50 for valyl colchicine to EC50 for compound against HEK293 cells after 48 hrs by MTS assay; assay type: cell-based; settings: human, read-out: Ratio EC50

With `COc1cc2c(c(OC)c1OC)-c1ccc(OC)c(=O)cc1[C@@H](NC(=O)[C@@H](N)C(C)C)CC2.Cl` the EC50 (HEK293) was 0.3 µM, the EC25 (HEK293) was 0.08 µM and the EC50 [1] was 0.3 µM. For the same compound, the EC25 [1] was 0.2 µM.

In the case of `COc1cc2c(c(OC)c1OC)-c1ccc(OC)c(=O)cc1[C@@H](NC(C)=O)CC2` [COLCHICINE], the EC50 (HEK293) is reported as 0.03 µM, the EC25 (HEK293) is reported as 0.02 µM and the EC50 [1] is reported as 0.03 µM. For the same compound, the EC25 [1] was 0.02 µM and the selectivity ratio at 48 h [2] was 10.
